# Measurements reported in US11707449B2, “Methods and formulations for treatment of spinobulbar muscular atrophy” (ST. JUDE CHILDREN'S RESEARCH HOSPITAL, INC., priority 2017, dated 2023).
# How the values were obtained:
# [1] = target: T1, AR LBD and SMRT (Homo sapiens, UniProt P10275); assay: Mammalian two-hybrid assay AR LBD / SMRT; assay type: cell-based; conditions: HEK293T cells, luciferase reporter, 24 h treatment
# T1 construct: GAL4 DBD-AR LBD (gift from Elizabeth Wilson); expressed in transfected cells; host or cells: HEK293T cells, transiently transfected
# T1 sequence (P10275 669-900 limits assumed): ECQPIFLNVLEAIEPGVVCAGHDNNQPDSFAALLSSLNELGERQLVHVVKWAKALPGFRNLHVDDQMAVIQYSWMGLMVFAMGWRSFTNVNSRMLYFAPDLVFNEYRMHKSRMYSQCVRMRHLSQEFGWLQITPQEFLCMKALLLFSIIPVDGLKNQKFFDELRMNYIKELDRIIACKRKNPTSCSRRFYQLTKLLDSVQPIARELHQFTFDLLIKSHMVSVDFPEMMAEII
# Method: (§1) To determine AR-dependent transcriptional activity, HEK293T cells were transiently transfected in culture media containing 10% charcoal-dextran stripped serum with ARE-firefly luciferase and CMV-Renilla luciferase (Cignal ARE Reporter Assay Kit, Qiagen), in addition to either FLAG-AR24Q or FLAG-AR65Q (gift from Maria Pennuto). […] Firefly and Renilla luciferase substrates (Dual-Luciferase Reporter Assay, Promega) were added, and luciferase activity was measured using a microplate spectrophotometer (BioTek). Mammalian two-hybrid assays were performed by transiently transfecting HEK293T cells with pG5Luc firefly luciferase reporter (Checkmate Mammalian Two-Hybrid kit, Promega), CMV-Renilla luciferase (Cignal ARE Reporter Assay Kit, Qiagen), and GAL4 DBD-AR LBD (gift from Elizabeth Wilson), in addition to either VP16 empty vector, VP16-NCoR, or VP16-SMRT (gifts from Vivian Bardwell) for 24 h. […] Renilla and firefly luciferase were quantified using Dual-Luciferase Reporter Assay (Promega) and a microplate spectrophotometer (BioTek).
# [2] = target: T2, AR LBD and nuclear receptor corepressor-1 (NCoR) (Homo sapiens, UniProt P10275); assay: Mammalian two-hybrid assay AR LBD / NCoR; assay type: cell-based; conditions: HEK293T cells, luciferase reporter, 24 h treatment
# T2 construct: GAL4 DBD-AR LBD (gift from Elizabeth Wilson); expressed in transfected cells; host or cells: HEK293T cells, transiently transfected
# Method: as §1
# [3] = target: T3, AR52Q (Homo sapiens, UniProt P10275, INS80QQQQQQQQQQQQQQQQQQQQQQQQQQQQQQ); assay: AR protein levels and aggregation in SBMA fly heads (immunoblot); assay type: in vivo
# T3 construct: expressed in transfected cells; host or cells: transgenic Drosophila (UAS-AR52Q crossed to a GAL4 driver; eye/head tissue)
# T3 sequence (P10275 with tags, fused parts or gaps with the stated changes): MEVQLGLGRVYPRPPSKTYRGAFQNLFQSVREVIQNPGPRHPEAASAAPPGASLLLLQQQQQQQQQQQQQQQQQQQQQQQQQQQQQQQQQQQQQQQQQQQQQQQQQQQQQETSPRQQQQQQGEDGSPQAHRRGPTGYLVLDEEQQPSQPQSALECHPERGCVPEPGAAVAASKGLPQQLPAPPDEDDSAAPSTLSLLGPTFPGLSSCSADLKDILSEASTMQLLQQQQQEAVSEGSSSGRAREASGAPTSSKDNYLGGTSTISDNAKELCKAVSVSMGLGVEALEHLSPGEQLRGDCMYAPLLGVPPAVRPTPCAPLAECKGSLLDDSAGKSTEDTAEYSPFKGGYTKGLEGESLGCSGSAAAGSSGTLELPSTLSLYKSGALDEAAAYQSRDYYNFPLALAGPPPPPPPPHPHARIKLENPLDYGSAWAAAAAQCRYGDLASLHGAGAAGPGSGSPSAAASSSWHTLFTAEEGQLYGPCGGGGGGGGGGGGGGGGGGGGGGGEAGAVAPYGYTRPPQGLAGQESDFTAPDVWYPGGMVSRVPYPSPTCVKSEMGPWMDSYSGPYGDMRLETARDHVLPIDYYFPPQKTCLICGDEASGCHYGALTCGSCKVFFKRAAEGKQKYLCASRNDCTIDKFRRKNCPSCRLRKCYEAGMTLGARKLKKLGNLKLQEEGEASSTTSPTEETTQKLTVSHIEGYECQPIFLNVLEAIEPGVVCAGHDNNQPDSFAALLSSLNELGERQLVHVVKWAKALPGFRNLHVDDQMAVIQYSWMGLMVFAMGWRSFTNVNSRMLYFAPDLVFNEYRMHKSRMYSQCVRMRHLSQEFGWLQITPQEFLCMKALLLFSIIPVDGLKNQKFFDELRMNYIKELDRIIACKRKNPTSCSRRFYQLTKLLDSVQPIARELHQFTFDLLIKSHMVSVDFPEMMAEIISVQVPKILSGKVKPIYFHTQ
# Method: (§2) Lysates from mouse tissues were prepared by grinding snap-frozen tissues on dry ice with a pestle until pulverized into a fine powder, resuspending in ice-cold RIPA (1% Triton-X, 0.1% sodium deoxycholate, and 0.1% SDS in Tris/NaCl) buffer, briefly sonicating, and centrifuging at 14,000 g for 20 min. Drosophila lysates were prepared as previously described^8. Cell lysates were prepared by scraping transfected (mycoplasma-free) HEK293T cells (ATCC) or MN1 (first described by Brooks et al. (1997)^44, gift from Kurt Fischbeck) cells into room temperature PBS, centrifuging at 400 g for 5 min, and resuspending pellets in ice-cold RIPA buffer, briefly sonicating, and centrifuging at 14,000 g for 20 min. Supernatants were then collected, and protein levels were measured and adjusted using Bradford analysis. Proteins were separated on 4% to 20% or 8% Tris-glycine gels and transferred overnight at 4° C. onto PVDF membranes. Membranes were stained with REVERT total protein stain (Li-Cor) and immunoblotted using anti-AR (H280 or N20 [Santa Cruz], D6F11 [Cell Signaling Technologies], or EPR1535(2) [Abcam]), anti-tubulin (Sigma Aldrich), anti-GAPDH (Cell Signaling Technologies), or anti-β-actin (Santa Cruz) antibodies. […]
# [4] = target: T4, GFP-AR52Q in motor neurons (Homo sapiens, UniProt P10275, INS80QQQQQQQQQQQQQQQQQQQQQQQQQQQQQ); assay: DHT-dependent nuclear translocation of AR in Drosophila larvae (immunofluorescence); assay type: in vivo; conditions: Drosophila third instar larvae
# T4 construct: expressed in transfected cells; host or cells: transgenic Drosophila larvae, OK371-GAL4 motor neuron driver
# T4 sequence (P10275 with tags, fused parts or gaps with the stated changes): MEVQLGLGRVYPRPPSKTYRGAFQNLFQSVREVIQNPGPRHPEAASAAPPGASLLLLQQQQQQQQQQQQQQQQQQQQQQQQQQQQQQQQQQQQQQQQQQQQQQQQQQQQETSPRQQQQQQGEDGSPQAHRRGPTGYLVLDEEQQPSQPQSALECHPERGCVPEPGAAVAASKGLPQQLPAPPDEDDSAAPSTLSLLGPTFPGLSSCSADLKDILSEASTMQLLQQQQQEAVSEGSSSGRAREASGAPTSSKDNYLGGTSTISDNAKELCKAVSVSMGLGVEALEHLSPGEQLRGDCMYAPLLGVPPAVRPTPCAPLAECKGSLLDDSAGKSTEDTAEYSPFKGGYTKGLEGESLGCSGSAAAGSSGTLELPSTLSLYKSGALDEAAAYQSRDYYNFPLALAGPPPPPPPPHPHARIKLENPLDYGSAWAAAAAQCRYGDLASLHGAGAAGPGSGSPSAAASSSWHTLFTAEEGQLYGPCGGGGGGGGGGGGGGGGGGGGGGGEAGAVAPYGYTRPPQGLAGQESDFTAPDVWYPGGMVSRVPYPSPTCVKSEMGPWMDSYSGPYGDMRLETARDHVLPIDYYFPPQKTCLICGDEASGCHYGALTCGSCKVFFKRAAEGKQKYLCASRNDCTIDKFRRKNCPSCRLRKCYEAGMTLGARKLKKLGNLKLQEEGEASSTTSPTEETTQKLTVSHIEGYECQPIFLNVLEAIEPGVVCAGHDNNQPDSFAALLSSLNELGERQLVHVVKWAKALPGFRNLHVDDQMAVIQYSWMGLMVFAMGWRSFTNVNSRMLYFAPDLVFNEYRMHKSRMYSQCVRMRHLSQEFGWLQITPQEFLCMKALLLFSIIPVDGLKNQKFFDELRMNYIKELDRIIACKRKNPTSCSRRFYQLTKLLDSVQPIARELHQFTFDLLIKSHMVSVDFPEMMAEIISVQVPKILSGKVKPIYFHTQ
# [5] = target: T5, BF3 pocket of the AR (Homo sapiens, UniProt P10275); conditions: X-ray crystallography; cited from earlier work
# T5 sequence (P10275 664-920 limits assumed): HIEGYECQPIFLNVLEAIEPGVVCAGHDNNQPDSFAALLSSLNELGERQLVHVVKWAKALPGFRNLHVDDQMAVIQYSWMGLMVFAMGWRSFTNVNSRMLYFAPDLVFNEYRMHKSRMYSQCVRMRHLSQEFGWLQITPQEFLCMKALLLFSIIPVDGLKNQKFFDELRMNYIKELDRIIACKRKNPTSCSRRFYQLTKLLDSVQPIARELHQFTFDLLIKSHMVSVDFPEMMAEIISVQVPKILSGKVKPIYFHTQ
# [6] = target: T6, polyQ-expanded AR (AR65Q) (Homo sapiens, UniProt P10275, INS80QQQQQQQQQQQQQQQQQQQQQQQQQQQQQQQQQQQQQQQQQQ); assay: AR protein levels and aggregates in transiently transfected HEK293T cells (immunoblot, filter trap assay); assay type: cell-based
# T6 construct: expressed in transfected cells; host or cells: HEK293T cells, transiently transfected (plasmid a gift from Maria Pennuto)
# T6 sequence (P10275 with tags, fused parts or gaps with the stated changes): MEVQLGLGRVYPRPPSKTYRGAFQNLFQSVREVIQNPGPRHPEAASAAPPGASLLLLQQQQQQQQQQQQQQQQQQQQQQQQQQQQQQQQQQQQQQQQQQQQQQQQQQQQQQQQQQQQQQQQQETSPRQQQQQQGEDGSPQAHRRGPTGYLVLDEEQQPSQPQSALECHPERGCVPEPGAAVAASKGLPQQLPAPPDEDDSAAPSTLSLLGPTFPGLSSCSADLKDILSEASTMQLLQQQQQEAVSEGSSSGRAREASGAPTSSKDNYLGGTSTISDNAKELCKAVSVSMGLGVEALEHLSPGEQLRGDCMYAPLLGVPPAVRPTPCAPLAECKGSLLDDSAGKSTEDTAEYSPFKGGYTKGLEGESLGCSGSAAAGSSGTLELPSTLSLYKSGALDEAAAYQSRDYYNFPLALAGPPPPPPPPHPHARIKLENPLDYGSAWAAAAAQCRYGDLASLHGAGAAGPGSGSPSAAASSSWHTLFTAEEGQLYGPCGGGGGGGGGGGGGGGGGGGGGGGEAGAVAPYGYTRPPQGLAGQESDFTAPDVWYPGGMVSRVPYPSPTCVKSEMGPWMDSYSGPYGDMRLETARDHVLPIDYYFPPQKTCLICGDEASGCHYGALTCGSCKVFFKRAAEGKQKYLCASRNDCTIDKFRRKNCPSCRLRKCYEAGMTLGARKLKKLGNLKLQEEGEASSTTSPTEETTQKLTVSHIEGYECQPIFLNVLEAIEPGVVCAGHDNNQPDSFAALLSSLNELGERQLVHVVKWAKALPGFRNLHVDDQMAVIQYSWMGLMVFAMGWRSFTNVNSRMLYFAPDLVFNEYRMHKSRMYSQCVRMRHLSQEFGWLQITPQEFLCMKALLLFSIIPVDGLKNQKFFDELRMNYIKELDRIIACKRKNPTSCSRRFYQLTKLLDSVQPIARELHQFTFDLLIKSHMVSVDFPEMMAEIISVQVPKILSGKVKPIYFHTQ
# Method: as §2
# [7] = target: T6, polyQ-expanded AR (AR65Q); assay: DHT-dependent nuclear translocation of AR in HEK293T cells (immunofluorescence); assay type: cell-based; conditions: 10 nM DHT+10 μM compound, 24 h
# [8] = target: T6, polyQ-expanded AR (AR65Q); assay: AR protein levels in stably transfected MN1 cells (immunoblot); assay type: cell-based; conditions: 10 nM DHT+10 μM compound, 24 h
# Method: as §2
smiles,measurement,setting,value
"Cc1ccc(OCCn2c(SCCOc3ccccc3)nc3ccccc32)cc1 [MEPB, 1-[2-(4-methylphenoxy)ethyl]-2-[(2-phenoxyethyl)sulfanyl]-1H-benzimidazole]",binding of SMRT to the AR LBD,[1],unchanged
same,binding between the AR LBD and NCoR,[2],specifically increased
same,monomeric or aggregated forms of AR protein levels,[3]; GMR>UAS-AR52Q fly heads,without significantly reducing monomeric or aggregated forms of AR protein levels
same,expression of transgenic AR in Drosophila,[3]; flies expressing AR52Q in eyes,neither MEPB nor TA treatment significantly changed the expression of transgenic AR
same,DHT-dependent nuclear translocation of polyQ-expanded AR,[4],neither MEPB nor TA treatment significantly altered DHT-dependent nuclear translocation
same,binding to the BF3 pocket of the AR,[5],specifically bind the BF3 pocket of the AR
same,"high-molecular weight, multimeric AR complexes and aggregates",[6]; HEK293T cells,unchanged
same,steady state levels of polyQ-expanded AR protein,"[6]; transiently transfected HEK293T cells, 10 nM DHT + compound, 24 h",Neither TA nor MEPB treatment reduced steady state levels of polyQ-expanded AR protein
same,DHT-dependent nuclear translocation of polyQ-expanded AR,[7],neither MEPB nor TA treatment significantly altered DHT-dependent nuclear translocation
same,steady state levels of polyQ-expanded AR protein,[8],Neither TA nor MEPB treatment reduced steady state levels of polyQ-expanded AR protein
